We go through eight compounds from patent publication US20210355107A1, “MULTI-SUBSTITUTED PYRIDONE DERIVATIVES AND MEDICAL USE THEREOF” (Beijing Yuezhikangtai Biomedicines Co., Ltd., priority 2018, published 2021).

In general, IC50 refers to the point on the concentration scale where inhibition reaches its midpoint.

Experiment [1] has as its target T1, kinase Axl (Homo sapiens, UniProt P30530).
T1 construct: purchased Carna 08-107
T1 sequence (P30530 473-894 limits assumed): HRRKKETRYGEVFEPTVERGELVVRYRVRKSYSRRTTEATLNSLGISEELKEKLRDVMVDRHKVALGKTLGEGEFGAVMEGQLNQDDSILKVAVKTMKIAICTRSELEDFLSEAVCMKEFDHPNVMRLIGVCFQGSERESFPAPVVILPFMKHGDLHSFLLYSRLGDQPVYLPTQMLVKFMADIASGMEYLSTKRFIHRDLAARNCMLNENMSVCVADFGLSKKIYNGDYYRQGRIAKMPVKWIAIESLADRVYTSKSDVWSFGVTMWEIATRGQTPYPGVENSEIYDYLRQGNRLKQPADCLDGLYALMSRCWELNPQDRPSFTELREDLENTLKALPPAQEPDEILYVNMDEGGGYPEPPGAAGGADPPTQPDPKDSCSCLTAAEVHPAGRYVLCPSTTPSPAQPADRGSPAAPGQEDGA
The experiment is described as follows: Mobility shift assay, inhibitory activity against kinase Axl. As to conditions: ATP at Km (81 μM), average of two independent experiments. Format: biochemical.

Experiment [2] relates to EBC-1 cells. The experiment is described as follows: EBC-1 cell proliferation, CellTiter-Glo Luminescent Cell Viability Assay. To be noted: Homo sapiens, 72 h incubation, read-out: IC50 (nM) against EBC-1 cells. It is filed as cell-based. How it is done:
Test Example 3: Inhibitory Activity of Compounds disclosed herein against EBC-1 Cells
Test method: the inhibitory activity of the compounds against EBC-1 cell proliferation was evaluated using CellTiter-Glo® Luminescent Cell Viability Assay Kit (Promega).
Test procedures: when thawing EBC-1 cells, the cell cryopreservation tube was shaken rapidly in a water bath at 37° C. to thaw the cells in 1 min. The cell suspension after thawing was mixed with RPMI1640 culture medium containing 10% FBS and centrifuged for 5 min at 1000 rpm, and the supernatant was discarded. The cell pellet was suspended in 5 mL of complete culture medium. The suspension was placed in a cell culture flask with a bottom area of 25 cm^2, and cultured in a cell incubator at 37° C./95% humidity/5% CO2. Cell passage was performed when cell confluence reached about 80%. When the cells were passaged, the original cell suspension was directly made uniform by pipetting. 1/6 of the cell suspension was kept, added with 5 mL of new complete culture medium and then made uniform by pipetting. The cell culture flask was then placed in a cell incubator for further culturing. Cell plating was performed when the cell confluence reached about 80% again. With reference to the method for cell passage, 1/6 cell suspension was kept for further culturing when the cells were plated, and the remaining 5/6 of cell suspension was placed in a 15 mL centrifuge tube. Cell viability was detected by trypan blue exclusion using an IC1000 cell counter (Countstar) to ensure that cell viability was above 90%. Cell suspension at a density of 3.33×10^4 viable cells/mL was prepared using complete culture medium, and 90 μL of the cell suspension was added into 96-well cell culture plates, so that the cell density in the cell culture plates (day 0 plate and test compound plate) was 3000 viable cells/well. A control group that contains no cell or compound but only complete culture medium and a control group that contains no compound but cells were set. The cell plates were incubated overnight in a cell incubator. […] 10 μL of the above solution was added into a corresponding cell culture plate to ensure that the initial concentration of the compound was 10 μM, the dilution factor of adjacent concentration was 3.16, and the DMSO content in the cell culture plate was 0.1%. The cell plates were then incubated in the cell incubator for 72 h. During detection, CellTiter-Glo reagent (namely CellTiter-Glo® […] cell viability test reagent, Promega, Cat. No. G7572, Lot. No. 0000310975) was melted, and the cell plate was equilibrated at room temperature for 30 min. The cell plate was added with the CellTiter-Glo reagent at 100 μL per well, and then shaken on a QB-9001 microporous quick shaker (Kylin-Bell) for 5 min to fully lyse the cells. The cell plate was left to stand at room temperature for 20 min to stabilize luminescence signals, and the luminescence value of each well was scanned by a Spectramax M3 multi-functional microplate reader (Molecular Devices) at full wavelength.
Test samples: example compounds of the present invention and cabozantinib (positive control compound).
Data analysis: cell viability was calculated for compounds at various concentrations using the following formula:
Cell viability(%)=(Lumtest compound−Lumculture solution control)/(Lumcell control−Lumculture solution control)×100%,
where Lum refers to the luminescence value of each well of the test compound plate read by the multi-functional microplate reader.
The data were analyzed using GraphPad Prism 7.0 software, fitted with nonlinear S-curve regression to give dose-response curves, and IC50 values were calculated therefrom.

Take `CC(C)n1cc(C(=O)Nc2ccc(-c3cc(-c4cnn(C5CCNCC5)c4)cnc3N)c(F)c2)c(=O)c(-c2ccc(F)cc2)c1C#N` [Example 2, N-(4-(2-amino-5-(1-(piperidin-4-yl)-1H-pyrazol-4-yl)pyridin-3-yl)-3-fluorophenyl)-6-cyano-5-(4-fluorophenyl)-1-isopropyl-4-oxo-1,4-dihydropyridine-3-carboxamide]: the figures for the half-inhibitory concentration (IC50) in experiment [1] and in experiment [2] were 0.46 nM and 24 nM, respectively.

In the case of `CCn1cc(-c2cnc(N)c(-c3ccc(NC(=O)c4cn(C(C)C)c(C#N)c(-c5ccc(F)cc5)c4=O)cc3F)c2)cn1` [Example 3, N-(4-(2-amino-5-(1-ethyl-1H-pyrazol-4-yl)pyridin-3-yl)-3-fluoro-phenyl)-6-cyano-5-(4-fluorophenyl)-1-isopropyl-4-oxo-1,4-dihydropyridine-3-carboxamide], the half-inhibitory concentration (IC50) stood at 2.7 nM in experiment [1] and 22 nM in experiment [2].

For the compound `CC(C)n1cc(C(=O)Nc2ccc(-c3cc(-c4cnn(C)c4)cnc3N)c(F)c2)c(=O)c(-c2ccc(F)cc2)c1C#N` [Example 4, N-(4-(2-amino-5-(1-methyl-1H-pyrazol-4-yl)pyridin-3-yl)-3-fluorophenyl)-6-cyano-5-(4-fluorophenyl)-1-isopropyl-4-oxo-1,4-dihydropyridine-3-carboxamide], the results for the IC50 in experiment [1] and in experiment [2] were 0.28 nM and 30 nM, respectively.

Take `CC(C)n1cc(C(=O)Nc2cc(F)c(-c3cc(-c4cnn(C)c4)cnc3N)cc2F)c(=O)c(-c2ccc(F)cc2)c1C#N` [Example 6, N-(4-(2-amino-5-(1-methyl-1H-pyrazol-4-yl)pyridin-3-yl)-2,5-difluorophenyl)-6-cyano-5-(4-fluorophenyl)-1-isopropyl-4-oxo-1,4-dihydropyridine-3-carboxamide]: the results for the IC50 in experiment [1] and in experiment [2] were 2 nM and 13 nM, respectively.

Take `CC(C)n1cc(C(=O)Nc2ccc(-c3cc(-c4cnn(C5CCN(C)CC5)c4)cnc3N)c(F)c2)c(=O)c(-c2ccc(F)cc2)c1C#N` [Example 7, N-(4-(2-amino-5-(1-(1-methylpiperidin-4-yl)-1H-pyrazol-4-yl)-pyridin-3-yl)-3-fluorophenyl)-6-cyano-5-(4-fluorophenyl)-1-isopropyl-4-oxo-1,4-dihydro-pyridine-3-carboxamide]: the IC50 in experiment [2] was 27 nM.

As for `CCn1cc(-c2cnc(N)c(-c3ccc(NC(=O)c4cn(C5CC5)c(C#N)c(-c5ccc(F)cc5)c4=O)cc3F)c2)cn1` [Example 10, N-(4-(2-amino-5-(1-ethyl-1H-pyrazol-4-yl)pyridin-3-yl)-3-fluorophenyl)-6-cyano-5-(4-fluorophenyl)-1-cyclopropyl-4-oxo-1,4-dihydropyridine-3-carboxamide], the IC50 in experiment [1] was 2.8 nM; in experiment [2], 208 nM.

In the case of `COc1cc2nccc(Oc3ccc(NC(=O)c4cn(C)c(C#N)c(-c5ccc(F)cc5)c4=O)cc3F)c2cc1OC` [Example 21, 6-cyano-N-(4-((6,7-dimethoxyquinolin-4-yl)oxy)-3-fluoro-phenyl)-5-(4-fluorophenyl)-1-methyl-4-oxo-1,4-dihydropyridine-3-carboxamide], the values for the IC50 in experiment [1] and in experiment [2] were 3.2 nM and 109 nM, respectively.

For the compound `COc1cc2nccc(Oc3ccc(NC(=O)c4cn(C(C)C)c(C#N)c(-c5ccc(F)cc5)c4=O)cc3F)c2cc1OC` [Example 24, 6-cyano-N-(4-((6,7-dimethoxyquinolin-4-yl)oxy)-3-fluoro-phenyl)-5-(4-fluorophenyl)-1-isopropyl-4-oxo-1,4-dihydropyridine-3-carboxamide], the half-inhibitory concentration (IC50) in experiment [2] is 45 nM.
